Measured values reported in article PMC9501899 (Journal of the American Chemical Society, 2022).
Like-named read-outs stand apart in the source and are kept apart here.

Tests used:
LRRK2 = LRRK2 degradation in multiple cell lines (summary); assay type: cell-based
From the text: Leucine-rich repeat kinase 2 (LRRK2) is one of the most promising targets for Parkinson’s disease.

LRRK2-NanoLuc = target: T1, LRRK2-NanoLuc (Homo sapiens, UniProt Q5S007); test: NanoBRET binary LRRK2 binding in HEK293 lysate; conditions: compound alone, lysate of HEK293 cells, LRRK2 tracer
T1 construct: host or cells: HEK293
T1 sequence (Q5S007 whole entry): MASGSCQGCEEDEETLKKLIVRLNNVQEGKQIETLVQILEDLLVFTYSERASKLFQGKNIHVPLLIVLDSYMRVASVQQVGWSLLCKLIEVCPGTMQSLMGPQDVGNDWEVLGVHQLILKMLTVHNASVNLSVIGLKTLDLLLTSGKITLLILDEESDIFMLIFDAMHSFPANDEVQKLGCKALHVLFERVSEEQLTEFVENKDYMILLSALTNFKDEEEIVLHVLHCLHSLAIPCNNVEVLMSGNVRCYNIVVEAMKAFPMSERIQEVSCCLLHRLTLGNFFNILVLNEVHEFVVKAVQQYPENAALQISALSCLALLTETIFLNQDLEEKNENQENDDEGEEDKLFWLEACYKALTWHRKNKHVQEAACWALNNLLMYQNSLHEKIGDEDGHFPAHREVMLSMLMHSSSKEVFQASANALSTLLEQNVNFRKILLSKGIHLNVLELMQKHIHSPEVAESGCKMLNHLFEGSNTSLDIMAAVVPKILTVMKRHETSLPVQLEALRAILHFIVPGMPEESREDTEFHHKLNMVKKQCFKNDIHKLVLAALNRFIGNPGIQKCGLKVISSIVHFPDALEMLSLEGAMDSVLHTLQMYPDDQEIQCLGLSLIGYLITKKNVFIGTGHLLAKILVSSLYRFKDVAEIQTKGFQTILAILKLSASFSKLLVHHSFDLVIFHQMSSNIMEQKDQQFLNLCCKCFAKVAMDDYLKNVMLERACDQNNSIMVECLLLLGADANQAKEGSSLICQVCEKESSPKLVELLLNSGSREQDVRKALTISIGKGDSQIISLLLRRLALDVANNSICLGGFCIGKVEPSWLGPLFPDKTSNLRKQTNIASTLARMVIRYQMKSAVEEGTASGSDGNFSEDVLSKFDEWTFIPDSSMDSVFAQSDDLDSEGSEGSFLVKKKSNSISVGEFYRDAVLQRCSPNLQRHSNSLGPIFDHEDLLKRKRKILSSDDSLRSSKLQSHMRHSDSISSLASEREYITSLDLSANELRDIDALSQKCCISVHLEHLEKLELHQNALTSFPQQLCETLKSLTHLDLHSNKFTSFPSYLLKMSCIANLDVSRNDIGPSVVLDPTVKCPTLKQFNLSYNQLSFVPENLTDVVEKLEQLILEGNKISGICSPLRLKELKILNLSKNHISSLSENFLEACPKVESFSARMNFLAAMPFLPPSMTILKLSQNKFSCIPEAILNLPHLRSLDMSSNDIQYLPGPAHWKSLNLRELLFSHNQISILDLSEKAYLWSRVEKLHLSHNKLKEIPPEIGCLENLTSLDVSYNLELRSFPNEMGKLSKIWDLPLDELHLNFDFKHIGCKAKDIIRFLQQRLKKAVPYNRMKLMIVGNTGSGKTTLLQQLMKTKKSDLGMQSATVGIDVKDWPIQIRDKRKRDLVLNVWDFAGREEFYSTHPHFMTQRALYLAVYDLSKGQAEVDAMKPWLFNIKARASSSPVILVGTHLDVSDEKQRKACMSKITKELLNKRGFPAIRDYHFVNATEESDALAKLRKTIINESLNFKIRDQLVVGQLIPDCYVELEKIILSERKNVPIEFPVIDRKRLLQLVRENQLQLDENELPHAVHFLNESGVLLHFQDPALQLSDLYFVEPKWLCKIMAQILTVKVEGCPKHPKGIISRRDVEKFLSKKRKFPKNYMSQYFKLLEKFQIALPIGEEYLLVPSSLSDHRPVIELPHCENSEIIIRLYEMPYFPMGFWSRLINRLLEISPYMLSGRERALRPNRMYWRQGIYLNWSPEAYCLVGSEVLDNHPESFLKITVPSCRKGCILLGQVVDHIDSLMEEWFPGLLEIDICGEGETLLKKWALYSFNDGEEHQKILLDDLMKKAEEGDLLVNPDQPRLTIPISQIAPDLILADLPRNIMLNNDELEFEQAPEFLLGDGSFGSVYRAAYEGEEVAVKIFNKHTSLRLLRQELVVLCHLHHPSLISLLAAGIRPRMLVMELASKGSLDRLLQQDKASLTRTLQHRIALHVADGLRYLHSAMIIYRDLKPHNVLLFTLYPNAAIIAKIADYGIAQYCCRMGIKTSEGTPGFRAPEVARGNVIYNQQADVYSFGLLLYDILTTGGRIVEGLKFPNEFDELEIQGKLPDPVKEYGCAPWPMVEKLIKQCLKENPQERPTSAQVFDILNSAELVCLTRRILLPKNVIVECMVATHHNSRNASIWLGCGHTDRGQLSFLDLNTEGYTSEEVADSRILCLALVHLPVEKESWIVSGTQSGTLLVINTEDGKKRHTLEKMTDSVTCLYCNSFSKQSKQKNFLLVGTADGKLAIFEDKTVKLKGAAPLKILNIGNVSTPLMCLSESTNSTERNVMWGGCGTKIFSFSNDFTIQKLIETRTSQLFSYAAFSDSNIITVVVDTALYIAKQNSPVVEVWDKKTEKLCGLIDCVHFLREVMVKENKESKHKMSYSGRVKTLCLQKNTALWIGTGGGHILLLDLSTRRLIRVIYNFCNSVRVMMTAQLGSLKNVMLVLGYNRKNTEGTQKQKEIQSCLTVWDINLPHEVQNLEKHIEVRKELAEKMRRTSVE
Experimental: In the maximum signal control samples (DMSO control), DMSO was added instead of testing compounds.

LRRK1, VPS35, PPM1H = test: TMT-based global proteomic profiling in WT MEFs, LRRK2-related proteins; assay type: cell-based, mouse; conditions: 300 nM, 4 h
[1] = Mouse liver microsome stability; assay type: in vitro ADME; conditions: liver microsomes
Experimental: Testing compound (1.5 μL) or reference compound (500 μM in 5% DMSO and 95% acetonitrile) was mixed with 18.75 μL of 20 mg/mL liver microsome (Corning) and 479.75 μL of potassium phosphate buffer (0.1 M potassium phosphate buffer, 1 mM EDTA, pH 7.4). The reaction was started by mixing 30 μL of the above mixture (prewarmed to 37 °C) with 15 μL of 6 mM NADPH stock solution (prewarmed to 37 °C). After incubating for 5, 15, 30, or 45 min, 135 μL of acetonitrile containing internal standard was added to stop the reaction. For 0 min, the compound and microsome mixture were mixed with acetonitrile first before adding NADPH. After quenching, the reaction mixture was centrifuged, and the supernatant was taken and diluted for LC-MS analysis.

[2] = Mouse hepatocyte stability; assay type: in vitro ADME; conditions: mouse hepatocytes
Experimental: Fifty microliters of prewarmed hepatocytes (2 × 10^6 cells/mL) in suspension media (Krebs–Henseleit buffer (Sigma-Aldrich) containing 5.6 g/L HEPES) was mixed with 50 μL of prewarmed compound dosing solution (2 μM in Krebs–Henseleit buffer with 1% DMSO). After incubating at 37 °C for 15, 30, 60, or 120 min, 100 μL of acetonitrile containing internal standard was added to quench the reaction. For 0 min incubation, acetonitrile was mixed with hepatocytes first before adding the compound solution. After quenching, the mixture was shaken at a vibrator for 10 min (600 rpm/min) and then sonicated for 2 min before centrifugation (5594g for 15 min). The supernatant was taken and diluted for LC-MS analysis.

[3] = Pharmacokinetic (PK) study in mice; assay type: in vivo, C57BL/6 male mice; conditions: for bioavailability: C57BL/6, plasma, mouse
Experimental: Data are mean (±standard deviation (SD)) from three mice at each time point. […]
PK profiling was outsourced and undertaken by Shanghai ChemPartner Co., Ltd. All animal experiments performed were conducted in compliance with the Institutional Animal Care and Use Committee (IACUC) and the Office of Laboratory Animal Welfare (OLAW) guidelines. Six to eight week old C57BL/6 male mice purchased from Jihui Laboratory Animal Co., Ltd. were used in the study. […] The animals were restrained manually at the designated time points (0.083, 0.25, 0.5, 1, 2, 4, and 8 h); approximately, 110 μL of blood sample was collected via facial vein into K2EDTA tubes. Three mice per time point were used, resulting in a total of 21 mice for each administration route. The blood sample was put on ice and centrifuged at 2000g for 5 min to obtain the plasma sample within 15 min. The plasma, brain, and CSF samples were stored at approximately −70 °C until analysis. A 30 μL aliquot of plasma was added with 200 μL of internal standard (Glipozode, 40 ng/mL) in MeCN with 5% Citri. The mixture was then vortexed for 1 min and then centrifuged for 10 min at 5800 rpm. The supernatant (100 μL) was transferred to a new plate. The solution (1 μL) was injected into LC-MS/MS. LC-MS/MS instrument used: SCIEX LC-MS/MS-49 (Triple Quad 6500+). Data were analyzed by WinNonLin and Microsoft Excel.

[4] = male, C57BL/6, IP 30 mg/kg, mouse plasma
[5] = male, C57BL/6, IV 5 mg/kg, mouse plasma
[6] = male, C57BL/6, PO 30 mg/kg, mouse plasma

CNc1nc(Nc2ccc(C(=O)N3CCN(C[C@H]4CC[C@H](CSC(C)(C)[C@H](NC(=O)C5(F)CC5)C(=O)N5C[C@H](O)CC5C(=O)NCc5ccc(-c6scnc6C)cc5)CC4)CC3)cc2OC)ncc1Cl (stereo partly drawn) [XL01126, (2S,4R)-1-((R)-3-((((1R,4R)-4-((4-(4-((5-Chloro-4-(methylamino)pyrimidin-2-yl)amino)-3-methoxybenzoyl)piperazin-1-yl)methyl)cyclohexyl)methyl)thio)-2-(1-fluorocyclopropane-1-carboxamido)-3-methylbutanoyl)-4-hydroxy-N-(4-(4-methylthiazol-5-yl)benzyl)pyrrolidine-2-carboxamide]
DC50 (LRRK2): 14 to 72 nM
Dmax values (LRRK2): 82 to 90%
IC50 (LRRK2-NanoLuc): 2000 nM
levels of LRRK1, VPS35 and PPM1H (in words) (LRRK1, VPS35, PPM1H): remained unaffected
CLint scaled at 1 µM ([1]; pH 7.4): 1490 mL/min/kg
half-life at 1 µM ([1]; pH 7.4, read-out: T1/2 in mouse liver microsome): 3.65 min
CLint scaled at 1 µM [2]: 26 mL/min/kg
half-life at 1 µM ([2]; read-out: T1/2 in mouse hepatocytes): 5.24 h
Kp ([3]; male, C57BL/6, mouse, brain, other: IV, mice, single dose IV, IP or PO, read-out: brain-to-plasma ratio): < 0.035
bioavailability ([3]; male, IP 30 mg/kg, read-out: F): 29.2%
bioavailability ([3]; male, PO 30 mg/kg, read-out: F, oral bioavailability): 15%
AUC(0-inf) [3, 4]: 64100 ng·h/mL
AUC(0-t) [3, 4]: 41400 ng·h/mL
Cmax [3, 4]: 7700 ng/mL
Tmax [3, 4]: 0.25 h
half-life [3, 4]: 5.2 h
AUC(0-inf) [3, 5]: 24000 ng·h/mL
AUC(0-t) [3, 5]: 23700 ng·h/mL
MRT [3, 5]: 2.45 h
clearance [3, 5]: 3.47 mL/min/kg
half-life [3, 5]: 1.52 h
Vd ([3]; male, C57BL/6, IV 5 mg/kg, mouse plasma, read-out: Vss): 0.511 L/kg
AUC(0-inf) [3, 6]: 109000 ng·h/mL
AUC(0-t) [3, 6]: 21300 ng·h/mL
Cmax [3, 6]: 3620 ng/mL
Tmax [3, 6]: 2 h
half-life [3, 6]: 21.9 h
presence in brain tissues and CSF (in words) ([3]; mice, single dose IV, IP or PO): detected in brain tissues and CSF
